Laboratory results reported in patent publication US20080319042A1, “Compositions and methods for treatment of liver disease” (priority 2007, published 2008).
Values after ≈ are worked out from the molar mass of the structure shown. Values joined by “and” are separate entries in the source; they are usually repeats but may differ in a detail not shown here. Equal values may be shown once.

Assays:
[1] = system: HCV/HIV pseudovirions; assay: microbe, parasite or virus in culture; assay type: cell-based, hepatitis C virus; settings: for inhibition of HCV/HIV entry: 100 μg/mL, FIG. 1
[2] = system: HCV JFH1; assay: HCV JFH1 infectivity assay (JFH1 Foci Reduction Assay); assay type: cell-based, hepatitis C virus; settings: virus preincubated with compound, Huh 7 cells, 48 hr post infection, RD8, RD16, RD17, RD18 as glucosidase hydrolysis products
[3] = system: hepatitis B surface antigen (HBsAg) production; assay: Anti-HBSAg Assay (Procedure A); assay type: cell-based, hepatitis B virus; settings: 50 μg/ml
Method: (§1) The HBV-producing human hepatoblastoma cell line, Hep G2.2.15 was maintained in DMEM supplemented with 10% fetal bovine serum (FBS), 2 mM glutamine, 100 units/ml penicillin, 100 μg/ml streptomycin and 380 μg/ml gentamicin sulfate (G418) at 37° C. under 5% CO2 in air. The Hep G2 parental cells were grown under identical conditions in MEM with Earle's salts without G418.
(§2) Hep G2.2.15 cells (190 μl) were seeded onto microtiter plates at a concentration of 20×10^4 cells/ml. The cells incubated overnight in medium without G418 after which the compound compositions (10 μl) were added. Five 2-fold serial dilutions of extracts or fractions were tested starting at 200 μg/ml final culture concentration. PBS and 3TC (lamivudine) were included as the negative and positive controls, respectively. The treated cells were incubated at 37° C. for 4 days, after which the hepatitis B surface antigen (HBsAg) production in culture supernatants was assayed. The HBsAg released into the culture medium in the presence or absence of test samples was assayed using the BIO-RAD Genetic Systems HBsAg EIA 3.0 kit (Bio-Rad, Redmond, Wash.). This enzyme immunoassay is based on the capture of HBsAg on monoclonal antibody-coated plates. Four- and twelve-fold dilutions of all culture supernatants collected were assayed in triplicate wells of the EIA plate. The percentage inhibition of HBsAg secretion in the presence of the plant samples was calculated against the negative control (PBS).

[4] = system: Hep G2.2.15 cells; assay: % Cell Viability in Anti-HBSAg Assay (Procedure A); assay type: cell-based, human; settings: 50 μg/ml
Method: as §1, §2

[5] = system: HBeAg; assay: Anti-HBSAg Assay (Procedure B), HBeAg; assay type: cell-based, hepatitis B virus; set-up: HBeAg Ave: unit not given here
[6] = system: HBsAg; assay: Anti-HBSAg Assay (Procedure B), HBsAg; assay type: cell-based, hepatitis B virus; set-up: HBsAg Ave.: unit not given here
Method: The HBV-producing human hepatoblastoma cell line, Hep G2 2.2.15 is maintained in DMEM supplemented with 10% fetal bovine serum (FBS), 2 mM glutamine, 100 units/ml penicillin, 100 μg/ml streptomycin at 37° C. under 5% CO2 in air.
Samples were dissolved in DMSO at the concentration of 20 mg/mL, then further diluted with DMEM medium to the appropriate concentration.
Hep G2 2.2.15 cells (120 μl) were seeded onto 96-well plates at a concentration of 2×10^5 cells/mL. The cells incubated for 72 h in the medium without G418, after which the test samples (120 μl) were added. Five 3-fold serial dilutions of samples were tested. PBS and 3TC (lamivudine) were included as the negative and positive controls, respectively. The treated cells were incubated at 37° C. for 9 days; with the medium with sample being changed each 3 days, after which the culture supernatant was removed for analysis of both the hepatitis B surface antigen (HBsAg) production and hepatitis B DNA expression.
The HBsAg released into the culture medium in the presence or absence of test material was assayed using the kit manufactured by Shanghai Siic Kehua Biotech Co., Ltd (Shanghai, China). This enzyme immunoassay is based on the capture of HBsAg on monoclonal antibody-coated plates. Four- and twelve-fold dilutions of all culture supernatants collected were assayed in triplicate wells of the kit plate. The percentage inhibition of HBsAg secretion in the presence of the compound was calculated against the negative control (PBS). The IC50 values, the dose that inhibited viruses by 50%, were calculated using non-linear regression analysis (percent survival versus concentration).

[7] = system: HBV DNA; assay: Anti-HBV DNA Assay; assay type: cell-based, hepatitis B virus; settings: for HBV DNA copies/ml: replicates
[8] = Enzyme Hydrolysis Processing Time 0.5 hours
[9] = Enzyme Hydrolysis Processing Time 4.0 hours

## COC(=O)C1=COC(O)C2C1CC(O)C2C (mixture of isomers) [RD-8]
[1]; [8]
  HCV Inhibition at 20 μg/mL: 24.8
[1]; [9]
  HCV Inhibition at 20 μg/mL: 41.4
[2]
  Estimated IC50 (inhibition of HCV JFH1 infectivity): 15 µg/mL

## COC(=O)C1=COC(O)C2C1C(O)CC2(C)O (mixture of isomers) [RD-16]
[1]; [8]
  HCV Inhibition at 20 μg/mL: 49.0
[1]; [9]
  HCV Inhibition at 20 μg/mL: 61.2
[2]
  Estimated IC50 (inhibition of HCV JFH1 infectivity): 14 µg/mL

## CC1C(O)CC2C(C(=O)O)=COC(O)C21 (mixture of isomers) [RD-17]
[1]; [8]
  HCV Inhibition at 20 μg/mL: 39.4
[1]; [9]
  HCV Inhibition at 20 μg/mL: 52.5
[2]
  Estimated IC50 (inhibition of HCV JFH1 infectivity): 17 µg/mL

## O=C(C=Cc1ccc(O)cc1)OCC1=CC(O)C2C=COC(O)C12 (mixture of isomers) [RD-18]
[1]; [8]
  HCV Inhibition at 20 μg/mL: 46.6
[1]; [9]
  HCV Inhibition at 20 μg/mL: 56.6
[2]
  Estimated IC50 (inhibition of HCV JFH1 infectivity): 26 µg/mL

## OCC1=CC(O)C2C=COC(O)C12 (mixture of isomers) [aucubin enzyme hydrolysate, reference compound]
[3]
  % Control HBSAg: 96%
  % Inhibition: 4%
[4]
  % Cell Viability: 100%

## COC(=O)C1=CO[C@@H](O)[C@@H]2C(CO)=CC[C@H]12 [RD-4]
[1]; Hepatitis C virus, Huh-7, read-out: HCV Inhibition at 20 μg/mL
  inhibition at 20 µg/mL: 73.2%
[2]; Hepatitis C virus, read-out: Estimated IC50 (inhibition of HCV JFH1 infectivity)
  IC50: 22 µg/mL (≈ 97.2 µM)

## OCC1=C[C@@H](O)[C@@H]2C=CO[C@@H](O)[C@H]12 [aucubin aglycone]
[5]; 6.25 μg/mL
  HBeAg Ave: 1.299
  HBeAg Inhibition %: 0%
  HBeAg OD1: 1.327
  HBeAg OD2: 1.265
  HBeAg OD3: 1.304
[5]; 12.5 μg/mL
  HBeAg Ave: 1.393
  HBeAg Inhibition %: 0%
  HBeAg OD1: 1.561
  HBeAg OD2: 1.316
  HBeAg OD3: 1.303
[5]; 25 μg/mL
  HBeAg Ave: 1.334
  HBeAg Inhibition %: 0%
  HBeAg OD1: 1.375
  HBeAg OD2: 1.335
  HBeAg OD3: 1.293
[5]; 50 μg/mL
  HBeAg Ave: 1.226
  HBeAg Inhibition %: 0%
  HBeAg OD1: 1.295
  HBeAg OD2: 1.259
  HBeAg OD3: 1.123
[5]; 100 μg/mL
  HBeAg Ave: 1.329
  HBeAg Inhibition %: 0%
  HBeAg OD1: 1.162
  HBeAg OD2: 1.391
  HBeAg OD3: 1.435
[1]
  inhibition of HCV/HIV entry: approximately 80%
[6]; 6.25 μg/mL
  HBsAg Ave.: 1.407
  HBsAg Inhibition %: 0%
  HBsAg OD1: 1.392
  HBsAg OD2: 1.375
  HBsAg OD3: 1.454
[6]; 12.5 μg/mL
  HBsAg Ave.: 1.323
  HBsAg Inhibition %: 4.5%
  HBsAg OD1: 1.370
  HBsAg OD2: 1.372
  HBsAg OD3: 1.227
[6]; 25 μg/mL
  HBsAg Ave.: 1.300
  HBsAg Inhibition %: 6.1%
  HBsAg OD1: 1.608
  HBsAg OD2: 1.116
  HBsAg OD3: 1.175
[6]; 50 μg/mL
  HBsAg Ave.: 0.845
  HBsAg Inhibition %: 37.9%
  HBsAg OD1: 0.935
  HBsAg OD2: 0.926
  HBsAg OD3: 0.675
[6]; 100 μg/mL
  HBsAg Ave.: 0.656
  HBsAg Inhibition %: 52.6%
  HBsAg OD1: 0.667
  HBsAg OD2: 0.641
  HBsAg OD3: 0.66
[7]; 6.25 μg/ml
  HBV DNA Average: 1.10 × 10^6 copies/ml
  HBV DNA Inhibit: 5.99%
[7]; 6.25 μg/ml, listed as HP-S4
  HBV DNA copies/ml: 1.26E+06 copies/ml and 9.83E+05 copies/ml and 1.06E+06 copies/ml
[7]; 12.5 μg/ml
  HBV DNA Average: 9.52 × 10^5 copies/ml
  HBV DNA Inhibit: 8.60%
[7]; 12.5 μg/ml, listed as HP-S4
  HBV DNA copies/ml: 1.16E+06 copies/ml and 9.17E+05 copies/ml and 7.78E+05 copies/ml
[7]; 25 μg/ml
  HBV DNA Average: 1.01 × 10^6 copies/ml
  HBV DNA Inhibit: 13.70%
[7]; 25 μg/ml, listed as HP-S4
  HBV DNA copies/ml: 1.02E+06 copies/ml and 9.74E+05 copies/ml and 1.04E+06 copies/ml
[7]; 50 μg/ml
  HBV DNA Average: 9.79 × 10^5 copies/ml
  HBV DNA Inhibit: 16.30%
[7]; 50 μg/ml, listed as HP-S4
  HBV DNA copies/ml: 1.05E+06 copies/ml and 9.27E+05 copies/ml and 9.59E+05 copies/ml
[7]; 100 μg/ml
  HBV DNA Average: 8.43 × 10^5 copies/ml
  HBV DNA Inhibit: 27.90%
[7]; 100 μg/ml, listed as HP-S4
  HBV DNA copies/ml: 7.90E+05 copies/ml and 7.94E+05 copies/ml and 9.44E+05 copies/ml

## OCC1=C[C@@H](O)[C@@H]2C=CO[C@@H](O[C@@H]3O[C@H](CO)[C@@H](O)[C@H](O)[C@H]3O)[C@H]12 [aucubin]
[5]; 12.5 μg/mL
  HBeAg Ave: 1.378
  HBeAg Inhibition %: 0%
  HBeAg OD1: 1.397
  HBeAg OD2: 1.419
  HBeAg OD3: 1.318
[5]; 25 μg/mL
  HBeAg Ave: 1.364
  HBeAg Inhibition %: 0%
  HBeAg OD1: 1.332
  HBeAg OD2: 1.369
  HBeAg OD3: 1.390
[5]; 50 μg/mL
  HBeAg Ave: 1.383
  HBeAg Inhibition %: 0%
  HBeAg OD1: 1.357
  HBeAg OD2: 1.437
  HBeAg OD3: 1.354
[5]; 100 μg/mL
  HBeAg Ave: 1.616
  HBeAg Inhibition %: 0%
  HBeAg OD1: 1.707
  HBeAg OD2: 1.479
  HBeAg OD3: 1.662
[5]; 200 μg/mL
  HBeAg Ave: 1.357
  HBeAg Inhibition %: 0%
  HBeAg OD1: 1.350
  HBeAg OD2: 1.305
  HBeAg OD3: 1.415
[1]
  inhibition of HCV/HIV entry: inactive
[3]
  % Control HBSAg: 100%
  % Inhibition: 0%
[6]; 12.5 μg/mL
  HBsAg Ave.: 1.232
  HBsAg Inhibition %: 0%
  HBsAg OD1: 1.196
  HBsAg OD2: 1.261
  HBsAg OD3: 1.238
[6]; 25 μg/mL
  HBsAg Ave.: 1.309
  HBsAg Inhibition %: 0%
  HBsAg OD1: 1.242
  HBsAg OD2: 1.384
  HBsAg OD3: 1.302
[6]; 50 μg/mL
  HBsAg Ave.: 1.272
  HBsAg Inhibition %: 0%
  HBsAg OD1: 1.218
  HBsAg OD2: 1.375
  HBsAg OD3: 1.222
[6]; 100 μg/mL
  HBsAg Ave.: 1.292
  HBsAg Inhibition %: 0%
  HBsAg OD1: 1.276
  HBsAg OD2: 1.353
  HBsAg OD3: 1.246
[6]; 200 μg/mL
  HBsAg Ave.: 1.541
  HBsAg Inhibition %: 0%
  HBsAg OD1: 1.546
  HBsAg OD2: 1.616
  HBsAg OD3: 1.46
[7]; 12.5 μg/ml
  HBV DNA Average: 1.06 × 10^6 copies/ml
  HBV DNA Inhibit: 9.40%
[7]; 12.5 μg/ml, listed as HP-S3
  HBV DNA copies/ml: 1.03E+06 copies/ml and 9.68E+05 copies/ml and 1.18E+06 copies/ml
[7]; 25 μg/ml
  HBV DNA Average: 1.03 × 10^5 copies/ml
  HBV DNA Inhibit: 1.35%
[7]; 25 μg/ml, listed as HP-S3
  HBV DNA copies/ml: 9.52E+05 copies/ml and 1.07E+06 copies/ml and 1.04E+06 copies/ml
[7]; 50 μg/ml
  HBV DNA Average: 1.28 × 10^6 copies/ml
  HBV DNA Inhibit: 0.00%
[7]; 50 μg/ml, listed as HP-S3
  HBV DNA copies/ml: 1.22E+06 copies/ml and 1.27E+06 copies/ml and 1.35E+06 copies/ml
[7]; 100 μg/ml
  HBV DNA Average: 1.32 × 10^6 copies/ml
  HBV DNA Inhibit: 0.00%
[7]; 100 μg/ml, listed as HP-S3
  HBV DNA copies/ml: 1.17E+06 copies/ml and 1.15E+06 copies/ml and 1.65E+06 copies/ml
[7]; 200 μg/ml
  HBV DNA Average: 1.20 × 10^6 copies/ml
  HBV DNA Inhibit: 0.00%
[7]; 200 μg/ml, listed as HP-S3
  HBV DNA copies/ml: 1.38E+06 copies/ml and 9.71E+05 copies/ml and 1.24E+06 copies/ml
